According to patent US11969428B2, “Methods and pharmaceutical compositions for treating lymphoid malignancy” (priority 2011, dated 2024):

Assays:
Test in all cases: Ambit KinomeScan screening
Type in all cases: binding
Settings in all cases: CAL-130 10 μM
FLT3(K663Q) = biological target: T1, FLT3(K663Q) (Homo sapiens, UniProt P36888, K663Q)
T1 construct: unspecified tag; purchased Ambit (KinomeScan screening service)
In short: (§1)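 CAL-130 was tested at 10 μM for its ability to block tagged kinases from binding an immobilized bait ligand across a 353-kinase panel. Values are expressed as percent of control binding, with lower numbers meaning stronger interaction and values above 35% classed as no hit.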

PRKR = biological target: T2, PRKR (Homo sapiens, UniProt P19525)
T2 construct: tag (kind not specified); purchased Ambit (KinomeScan screening service)
In short: as §1

FGR = biological target: T3, FGR (Homo sapiens, UniProt P09769)
T3 construct: unspecified tag; purchased Ambit (KinomeScan screening service)
In short: as §1

YANK2 = biological target: T4, YANK2 (Homo sapiens, UniProt Q9NY57)
T4 construct: purchased Ambit (KinomeScan screening service)
In short: as §1

CLK1 = biological target: T5, CLK1 (Homo sapiens, UniProt P49759)
T5 construct: purchased Ambit (KinomeScan screening service)
In short: as §1

LCK = biological target: T6, LCK (Homo sapiens, UniProt P06239)
T6 construct: unspecified tag ('tagged kinases'); purchased Ambit (KinomeScan screening service)
In short: as §1

FAK = biological target: T7, FAK (Homo sapiens, UniProt Q05397)
T7 construct: unspecified tag ("tagged kinases"); purchased Ambit (KinomeScan screening service)
In short: as §1

ZAK = biological target: T8, ZAK (Homo sapiens, UniProt Q9NYL2)
T8 construct: purchased Ambit (KinomeScan screening service)
In short: as §1

JAK1(JH1domain) = biological target: T9, JAK1(JH1domain) (Homo sapiens, UniProt P23458)
T9 construct: JAK1(JH1domain); purchased Ambit (KinomeScan screening)
In short: as §1

EPHB1 = biological target: T10, EPHB1 (Homo sapiens, UniProt P54762)
T10 construct: purchased Ambit (KinomeScan screening service)
In short: as §1

MAP4K4 = biological target: T11, MAP4K4 (Homo sapiens, UniProt O95819)
T11 construct: Ambit (KinomeScan screening)
In short: as §1

TYRO3 = biological target: T12, TYRO3 (Homo sapiens, UniProt Q06418)
T12 construct: tag, kind not specified; purchased Ambit (KinomeScan screening service)
In short: as §1

QSK = biological target: T13, QSK (Homo sapiens, UniProt Q9Y2K2)
T13 construct: tag (kind not specified); purchased Ambit (KinomeScan screening service)
In short: as §1

MAP4K5 = biological target: T14, MAP4K5 (Homo sapiens, UniProt Q9Y4K4)
T14 construct: Ambit (KinomeScan screening)
In short: as §1

ACVR2A = biological target: T15, ACVR2A (Homo sapiens, UniProt P27037)
T15 construct: purchased Ambit (KinomeScan screening)
In short: as §1

MYLK2 = biological target: T16, MYLK2 (Homo sapiens, UniProt Q9H1R3)
T16 construct: unspecified tag; purchased Ambit (KinomeScan screening panel)
In short: as §1

AURKB = biological target: T17, AURKB (Homo sapiens, UniProt Q96GD4)
T17 construct: purchased Ambit (KinomeScan screening service)
In short: as §1

LYN = biological target: T18, LYN (Homo sapiens, UniProt P07948)
T18 construct: unspecified tag ('tagged kinases'); purchased Ambit (KinomeScan screening service)
In short: as §1

ACVR1B = biological target: T19, ACVR1B (Homo sapiens, UniProt P36896)
T19 construct: unspecified tag ("tagged kinases"); purchased Ambit (KinomeScan screening)
In short: as §1

KIT(L576P) = biological target: T20, KIT(L576P) (Homo sapiens, UniProt P10721, L576P)
T20 construct: purchased Ambit (KinomeScan screening)
In short: as §1

PIM1 = biological target: T21, PIM1 (Homo sapiens, UniProt P11309)
T21 construct: unspecified tag; purchased Ambit (KinomeScan screening panel)
In short: as §1

[1] = biological target: T22, EGFR(L747-S752DEL, P753S) (Homo sapiens, UniProt P00533, DEL747-752/P753S)
T22 construct: unspecified tag; purchased Ambit (KinomeScan screening service)
In short: as §1

MAPKAPK5 = biological target: T23, MAPKAPK5 (Homo sapiens, UniProt Q8IW41)
T23 construct: Ambit (KinomeScan screening)
In short: as §1

DYRK1B = biological target: T24, DYRK1B (Homo sapiens, UniProt Q9Y463)
T24 construct: unspecified tag ("tagged kinases"); purchased Ambit (KinomeScan screening service)
In short: as §1

TIE1 = biological target: T25, TIE1 (Homo sapiens, UniProt P35590)
T25 construct: unspecified tag (tagged kinase); purchased Ambit (KinomeScan screening)
In short: as §1

MYLK = biological target: T26, MYLK (Homo sapiens, UniProt Q15746)
T26 construct: unspecified tag; purchased Ambit (KinomeScan screening panel)
In short: as §1

PAK5 = test system: PAK5
In short: as §1

PYK2 = biological target: T27, PYK2 (Homo sapiens, UniProt Q14289)
T27 construct: tag (kind not specified); purchased Ambit (KinomeScan screening service)
In short: as §1

CDC2L1 = biological target: T28, CDC2L1 (Homo sapiens, UniProt P21127)
T28 construct: purchased Ambit (KinomeScan screening)
In short: as §1

EPHA7 = biological target: T29, EPHA7 (Homo sapiens, UniProt Q15375)
T29 construct: purchased Ambit (KinomeScan screening service)
In short: as §1

CDK5 = biological target: T30, CDK5 (Homo sapiens, UniProt Q00535)
T30 construct: purchased Ambit (KinomeScan screening)
In short: as §1

KIT(V559D, V654A) = biological target: T31, KIT(V559D, V654A) (Homo sapiens, UniProt P10721, V559D/V654A)
T31 construct: unspecified tag ('tagged kinases'); purchased Ambit (KinomeScan screening service)
In short: as §1

LIMK2 = biological target: T32, LIMK2 (Homo sapiens, UniProt P53671)
T32 construct: unspecified tag ('tagged kinases'); purchased Ambit (KinomeScan screening service)
In short: as §1

MYO3B = biological target: T33, MYO3B (Homo sapiens, UniProt Q8WXR4)
T33 construct: unspecified tag; purchased Ambit (KinomeScan screening panel)
In short: as §1

MINK = biological target: T34, MINK (Homo sapiens, UniProt Q8N4C8)
T34 construct: unspecified tag ('tagged kinases'); purchased Ambit (KinomeScan screening)
In short: as §1

DMPK2 = biological target: T35, DMPK2 (Homo sapiens, UniProt Q6DT37)
T35 construct: unspecified tag ("tagged kinases"); purchased Ambit (KinomeScan screening service)
In short: as §1

Measured: Percent of Control Binding

T12 sequence (Q06418 41-890): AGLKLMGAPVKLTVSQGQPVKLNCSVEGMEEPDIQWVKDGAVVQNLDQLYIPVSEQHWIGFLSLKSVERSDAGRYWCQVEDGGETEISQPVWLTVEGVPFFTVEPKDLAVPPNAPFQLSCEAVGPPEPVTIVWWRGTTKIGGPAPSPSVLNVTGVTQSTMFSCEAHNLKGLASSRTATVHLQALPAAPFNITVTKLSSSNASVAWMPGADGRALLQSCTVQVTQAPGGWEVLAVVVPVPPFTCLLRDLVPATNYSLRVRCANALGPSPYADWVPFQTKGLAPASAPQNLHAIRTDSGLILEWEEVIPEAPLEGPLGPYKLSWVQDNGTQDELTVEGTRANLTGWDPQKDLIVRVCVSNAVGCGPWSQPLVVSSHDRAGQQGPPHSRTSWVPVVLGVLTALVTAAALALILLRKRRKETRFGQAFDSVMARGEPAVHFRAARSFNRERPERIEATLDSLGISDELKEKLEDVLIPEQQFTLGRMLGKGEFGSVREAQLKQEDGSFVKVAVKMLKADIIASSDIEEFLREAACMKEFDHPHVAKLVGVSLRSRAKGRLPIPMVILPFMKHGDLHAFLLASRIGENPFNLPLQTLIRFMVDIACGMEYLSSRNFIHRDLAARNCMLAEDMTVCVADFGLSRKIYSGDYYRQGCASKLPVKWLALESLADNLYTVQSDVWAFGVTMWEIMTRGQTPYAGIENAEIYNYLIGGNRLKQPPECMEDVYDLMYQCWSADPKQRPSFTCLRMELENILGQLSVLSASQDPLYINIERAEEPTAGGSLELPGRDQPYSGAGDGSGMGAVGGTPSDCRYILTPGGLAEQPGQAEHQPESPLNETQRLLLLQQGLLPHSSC
T33 sequence (Q8WXR4 whole entry): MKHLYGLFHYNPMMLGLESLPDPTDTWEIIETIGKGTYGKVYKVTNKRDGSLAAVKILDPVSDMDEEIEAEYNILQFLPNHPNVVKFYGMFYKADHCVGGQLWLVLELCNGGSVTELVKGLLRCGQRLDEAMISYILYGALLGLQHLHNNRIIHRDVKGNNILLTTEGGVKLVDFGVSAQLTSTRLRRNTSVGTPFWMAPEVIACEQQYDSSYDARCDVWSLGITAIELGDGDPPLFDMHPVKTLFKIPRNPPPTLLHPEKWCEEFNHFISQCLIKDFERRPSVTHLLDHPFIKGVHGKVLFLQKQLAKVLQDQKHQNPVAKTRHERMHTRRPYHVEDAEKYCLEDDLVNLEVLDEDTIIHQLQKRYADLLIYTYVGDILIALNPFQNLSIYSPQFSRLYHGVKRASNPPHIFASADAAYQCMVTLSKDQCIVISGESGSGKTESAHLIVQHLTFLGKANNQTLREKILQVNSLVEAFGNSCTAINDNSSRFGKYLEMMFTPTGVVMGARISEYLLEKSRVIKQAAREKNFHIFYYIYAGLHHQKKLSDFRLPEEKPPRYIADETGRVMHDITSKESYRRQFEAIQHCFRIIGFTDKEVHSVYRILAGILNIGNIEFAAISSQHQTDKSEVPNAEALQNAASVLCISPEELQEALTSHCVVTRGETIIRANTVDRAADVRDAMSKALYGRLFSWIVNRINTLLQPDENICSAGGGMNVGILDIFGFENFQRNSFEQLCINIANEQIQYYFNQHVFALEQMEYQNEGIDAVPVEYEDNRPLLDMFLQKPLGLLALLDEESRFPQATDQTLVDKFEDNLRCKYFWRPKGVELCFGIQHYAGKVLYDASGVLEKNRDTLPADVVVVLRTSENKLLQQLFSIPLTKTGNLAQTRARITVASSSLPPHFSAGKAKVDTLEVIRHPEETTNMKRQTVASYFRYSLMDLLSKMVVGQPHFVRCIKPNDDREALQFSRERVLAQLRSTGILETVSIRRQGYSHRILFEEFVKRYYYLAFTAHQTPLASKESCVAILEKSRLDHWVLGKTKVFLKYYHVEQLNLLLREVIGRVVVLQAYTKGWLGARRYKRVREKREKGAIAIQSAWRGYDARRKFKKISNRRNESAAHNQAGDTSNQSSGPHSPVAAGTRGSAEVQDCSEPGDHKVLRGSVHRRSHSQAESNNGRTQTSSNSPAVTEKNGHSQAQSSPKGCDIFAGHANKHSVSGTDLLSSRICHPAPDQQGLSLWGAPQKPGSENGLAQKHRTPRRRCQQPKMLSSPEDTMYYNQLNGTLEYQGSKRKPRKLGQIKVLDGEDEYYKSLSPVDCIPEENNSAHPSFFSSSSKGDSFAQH
T16 sequence (Q9H1R3 whole entry): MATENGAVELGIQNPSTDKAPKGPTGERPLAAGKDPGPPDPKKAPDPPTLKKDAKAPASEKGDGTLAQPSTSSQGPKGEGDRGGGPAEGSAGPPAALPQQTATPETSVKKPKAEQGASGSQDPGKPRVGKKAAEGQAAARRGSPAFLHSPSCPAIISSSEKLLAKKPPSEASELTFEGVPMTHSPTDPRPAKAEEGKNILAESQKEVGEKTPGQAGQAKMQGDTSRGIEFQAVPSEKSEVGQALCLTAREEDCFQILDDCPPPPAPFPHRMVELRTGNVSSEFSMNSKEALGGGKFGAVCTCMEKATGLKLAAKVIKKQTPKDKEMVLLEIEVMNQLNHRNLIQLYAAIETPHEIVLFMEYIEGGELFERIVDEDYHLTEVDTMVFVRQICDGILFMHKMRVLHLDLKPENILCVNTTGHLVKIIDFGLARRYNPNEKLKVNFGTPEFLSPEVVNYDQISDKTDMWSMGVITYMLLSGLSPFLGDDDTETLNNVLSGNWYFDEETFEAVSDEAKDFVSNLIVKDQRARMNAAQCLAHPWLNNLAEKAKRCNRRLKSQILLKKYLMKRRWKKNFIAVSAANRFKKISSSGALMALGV
T27 sequence (Q14289 whole entry): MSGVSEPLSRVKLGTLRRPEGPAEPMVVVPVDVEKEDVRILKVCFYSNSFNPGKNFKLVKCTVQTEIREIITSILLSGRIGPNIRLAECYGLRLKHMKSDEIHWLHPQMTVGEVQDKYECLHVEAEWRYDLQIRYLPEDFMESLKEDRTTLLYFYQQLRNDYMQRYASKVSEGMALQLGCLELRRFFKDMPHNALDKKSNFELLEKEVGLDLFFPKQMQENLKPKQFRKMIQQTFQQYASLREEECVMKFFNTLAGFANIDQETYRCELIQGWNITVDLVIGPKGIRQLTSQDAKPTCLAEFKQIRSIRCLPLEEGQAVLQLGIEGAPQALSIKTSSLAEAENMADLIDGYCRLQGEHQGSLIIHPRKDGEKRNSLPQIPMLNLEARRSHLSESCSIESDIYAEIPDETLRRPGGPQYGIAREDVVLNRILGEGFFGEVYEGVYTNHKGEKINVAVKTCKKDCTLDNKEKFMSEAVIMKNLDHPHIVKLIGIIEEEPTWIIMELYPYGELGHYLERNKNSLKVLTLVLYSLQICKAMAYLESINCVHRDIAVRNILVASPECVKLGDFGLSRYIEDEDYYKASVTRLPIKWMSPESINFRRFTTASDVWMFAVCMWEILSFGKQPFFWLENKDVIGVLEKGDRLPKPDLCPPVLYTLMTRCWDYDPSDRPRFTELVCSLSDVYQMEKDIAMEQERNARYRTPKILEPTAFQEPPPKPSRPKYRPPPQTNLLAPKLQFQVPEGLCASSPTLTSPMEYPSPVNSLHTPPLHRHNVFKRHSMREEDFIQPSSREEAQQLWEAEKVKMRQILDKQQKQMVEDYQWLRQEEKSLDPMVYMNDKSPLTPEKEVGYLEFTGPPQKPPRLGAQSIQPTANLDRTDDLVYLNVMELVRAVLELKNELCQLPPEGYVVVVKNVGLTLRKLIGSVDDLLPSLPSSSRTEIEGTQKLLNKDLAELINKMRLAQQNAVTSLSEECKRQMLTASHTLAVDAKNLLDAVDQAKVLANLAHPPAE
T21 sequence (P11309 whole entry): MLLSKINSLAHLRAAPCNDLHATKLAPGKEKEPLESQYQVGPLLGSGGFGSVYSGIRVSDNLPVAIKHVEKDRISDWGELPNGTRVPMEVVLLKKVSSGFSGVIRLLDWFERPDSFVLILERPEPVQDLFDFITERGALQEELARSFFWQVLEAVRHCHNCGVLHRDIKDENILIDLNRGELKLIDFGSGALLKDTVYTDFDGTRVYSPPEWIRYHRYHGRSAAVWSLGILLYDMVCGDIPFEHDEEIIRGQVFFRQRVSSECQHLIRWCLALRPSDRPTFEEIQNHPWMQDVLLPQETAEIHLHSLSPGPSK
T10 sequence (P54762 18-984): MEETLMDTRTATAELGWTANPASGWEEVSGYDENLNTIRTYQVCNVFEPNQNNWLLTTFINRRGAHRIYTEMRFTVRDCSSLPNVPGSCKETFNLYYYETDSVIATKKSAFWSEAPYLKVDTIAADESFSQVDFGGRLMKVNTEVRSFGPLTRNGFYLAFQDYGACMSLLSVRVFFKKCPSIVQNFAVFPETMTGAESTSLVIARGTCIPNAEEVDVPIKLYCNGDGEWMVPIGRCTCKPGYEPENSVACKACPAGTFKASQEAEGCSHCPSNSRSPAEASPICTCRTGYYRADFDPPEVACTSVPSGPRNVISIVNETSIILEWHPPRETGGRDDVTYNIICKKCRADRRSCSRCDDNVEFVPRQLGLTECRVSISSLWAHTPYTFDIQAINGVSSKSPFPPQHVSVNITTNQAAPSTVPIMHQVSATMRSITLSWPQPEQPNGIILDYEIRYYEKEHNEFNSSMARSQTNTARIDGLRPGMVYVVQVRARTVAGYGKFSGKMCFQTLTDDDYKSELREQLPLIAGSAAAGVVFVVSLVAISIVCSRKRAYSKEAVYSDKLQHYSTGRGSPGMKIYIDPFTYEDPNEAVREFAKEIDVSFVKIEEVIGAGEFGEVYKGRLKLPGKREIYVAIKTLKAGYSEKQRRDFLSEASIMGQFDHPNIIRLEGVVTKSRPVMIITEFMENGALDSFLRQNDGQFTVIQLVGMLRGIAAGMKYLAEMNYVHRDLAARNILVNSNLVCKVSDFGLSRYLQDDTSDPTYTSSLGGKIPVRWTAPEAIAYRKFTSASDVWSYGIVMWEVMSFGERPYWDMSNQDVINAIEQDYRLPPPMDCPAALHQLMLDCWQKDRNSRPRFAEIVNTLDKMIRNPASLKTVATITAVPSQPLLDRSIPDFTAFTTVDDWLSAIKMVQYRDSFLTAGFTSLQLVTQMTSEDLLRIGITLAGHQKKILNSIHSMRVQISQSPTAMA

Cc1ccccc1-n1c(C(C)Nc2nc(N)nc3nc[nH]c23)nc2cccc(C)c2c1=O (stereo not drawn) [CAL-130]
100%: all assays above
